Experimental data published in PubChem BioAssay AID179 (DTP/NCI, 2004).
Calls of active or inactive are those of the source.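 The calls were made as follows: active = compounds giving half or more protection of infected cells from virus-caused growth loss, again on retest; inactive = the rest.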 Where a SMILES comes first, the peptide text is derived from it.

Tested on: CEM cells HIV-1 protection, formazan growth assay
Experiment: NCI AIDS Antiviral Assay
Conditions: for IC50: measured here: growth of uninfected CEM cells
Method in brief: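 CEM (human) cells, HIV-1 infected vs uninfected, 5-point dosing, formazan growth read-out. Retest threshold 50% protection.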

| SMILES | outcome | EC50 [µM] | IC50 [µM] |
| --- | --- | --- | --- |
| CCC(C)C(N)C(=O)NC(C(=O)NC(CO)C(=O)NC(C)C(=O)NC(CO)C(=O)NC(C(=O)NC(CCCCN)C(=O)NC(CCCCN)C(=O)NC(CO)C(=O)NC(Cc1ccccc1)C(=O)O)C(C)CC)C(C)CC (stereo not drawn) (H-IISASIKKSF-OH; configuration not given here) | inactive | – | – |
| CN(C)c1ncnc2c1ncn2C1OC(CO)CC1F (stereo not drawn) | – | 141 | 178 |
| COc1nc2ncc([C@@H](O)[C@H](O)CO)nc2c(=O)[nH]1 | – | > 200 | > 200 |
| O=C(O)c1cc2ccccc2c(N=Nc2ccc(/C=C/c3ccc(N=Nc4c(O)c(C(=O)O)cc5ccccc45)cc3S(=O)(=O)O)c(S(=O)(=O)O)c2)c1O | – | 8.51 | 50.1 |
| CN(C)/N=N/c1nc[nH]c1C(N)=O | – | > 74.1 | 4.9 |
| CC(C)=CCN1c2ccccc2NC(=O)CC1C (stereo not drawn) | – | 7.94 | 91.2 |
| COC(=O)Nc1nc2ccccc2c(=O)[nH]1 | – | > 200 | > 200 |
| NC(=O)c1ccccc1NC(=O)C(=O)C(C(=O)c1ccc2ccccc2c1)C1OC(=O)c2ccccc21 (stereo not drawn) | – | > 52.5 | 15.8 |
| COc1ccc(-c2c(C)c(C(=O)O)nc(-c3ccc4c(O)c(OC)c5c(c4n3)=NC(C)(C)N=5)c2N)c(O)c1OC | – | > 457 | 2.4 |
| CC(C)=CCc1c(-c2ccc(O)cc2OC2OC(CO)C(O)C(O)C2O)oc2c3c(cc(O)c2c1=O)OC(C)(C)C=C3 (stereo not drawn) | – | > 58.9 | > 58.9 |
| CC(C)(C)C(=O)C(c1ccc(-c2cscn2)cc1)c1ccc(-c2cscn2)cc1 | – | > 2.51 | > 2.51 |
| CCCCCCCCC1C(C)c2c([nH]c3ccccc23)C2C(=O)N(c3ccccc3)C(=O)C21 (stereo not drawn) | inactive | – | – |
| CCOC(=O)c1[nH]c(COC(C)=O)c2c1CCCCCCCCCC2 | inactive | – | – |
| C=CCN1CCC(O)(c2cc(C(=O)OCC)[nH]c2-c2cc(C)no2)C1 (stereo not drawn) | – | > 200 | > 200 |
| CCOP(=O)(CP(=O)(OCC)OCC)OCC.[Cl][Sn]([Cl])([c]1ccccc1)[c]1ccccc1 | – | > 11.5 | 0.603 |
| CN(c1ccc(Cl)cc1)S(=O)(=O)c1ccc([N+](=O)[O-])cc1 | – | > 200 | > 200 |
| CC[C@@H]1C[C@H]2CC3c4c(c5cc(OC)ccc5n4C)CCN(C2)C31 | inactive | – | – |
| O=C1c2cccc3cccc(c23)C(=O)N1NCCO | – | > 200 | 162 |
| C[C@]12CCC[C@](C)(C(=O)O)[C@@H]1CC[C@@]13C[C@@H](CC[C@@H]12)[C@@H](C(=O)O)C3 | – | > 200 | > 200 |
| CC(C)c1ccc(/C=C2\CSCC3=C2N=C2SCC(=O)N2C3c2ccc(C(C)C)cc2)cc1 (stereo not drawn) | – | > 200 | 107 |
| C=C1C(=O)[C@]23C[C@H]1CC[C@H]2[C@@]12CO[C@@H](O)[C@@H]1C(C)(C)[C@@H](O)C[C@@H]2OC3=O | – | > 692 | 26.3 |
| CO/C(N)=C(\C#N)N=Cc1ccc2ccccc2c1 | – | > 200 | 37.2 |

| SMILES | outcome | EC50 [µM] | IC50 [µM] |
| --- | --- | --- | --- |
| CCOC(=O)NNC(=O)NCCCCNC(=O)NNC(=O)OCC | – | > 200 | > 200 |
| COc1cc(C(=O)N2CCc3c([nH]c4c([N+](=O)[O-])c(OC)ccc34)C2C)cc(OC)c1OC (stereo not drawn) | inactive | – | – |
| CCOP(=O)(C/C=C\Cn1cnc(C(N)=O)c1N)OCC | – | > 200 | > 200 |
| CCCC(=O)Sc1ccccc1C(=O)Nc1ccc(S(=O)(=O)NC(C)=O)cc1 | – | 28.2 | 112 |
| CCOC(=O)c1nc2ccccc2nc1Nc1ccc(OC)c(OC)c1 | – | > 200 | > 200 |
| CC(SC(=O)Nc1ccc(N=Nc2ccccc2)cc1)C(=O)O (stereo not drawn) | inactive | – | – |
| C1CSCCSCSCCS1 | – | > 44.7 | > 44.7 |
| O=C1C=C(NC(=O)C2CCCCC2)c2ncccc2C1=O | inactive | – | – |
| CC(=O)NNc1nc(C)c(C(=O)/C=C/c2ccccc2Cl)s1 | – | > 77.6 | 58.9 |
| COc1ncc(C#CC(=O)c2ccccc2)c(OC)n1 | – | > 2 | 0.331 |
| Cc1ccc(/C(O)=C/c2nc3c(nc2NC24CC5CC(CC(C5)C2)C4)c(=O)oc2ccccc23)cc1 | – | > 2.19 | > 2.19 |
| NCCS | – | > 1410 | 525 |
| Clc1ccc2cccc3c2c1C1OC3c2ccccc21 (stereo not drawn) | inactive | – | – |
| O=c1nc2ccc3sc4ccccc4c(=O)c3n2c(=O)[nH]1 | – | > 200 | 110 |
| O=c1cn[nH]c2c(F)cccc12 | – | > 646 | 617 |
| CS(=O)(=O)CSCSSCS(C)(=O)=O | – | > 427 | 20 |
| O=C(O)CCCCCCCC(O)C(O)CCCCCCCC(=O)O (stereo not drawn) | – | > 195 | > 195 |
| CCOC(=O)C(NC(=O)CC)(Nc1ccc(S(=O)(=O)Nc2onc(C)c2C)cc1)C(F)(F)F (stereo not drawn) | – | > 200 | > 200 |
| O=C1CC(O)c2c(Cl)sc(Cl)c21 (stereo not drawn) | – | > 200 | 5.25 |
| CCCc1c(O)c2ccccc2[nH]c1=O | – | > 200 | > 200 |
| CC(=O)OCC1OC(n2c3c(c(-c4cccc5ccccc45)c(C#N)c2=S)CCCC3)C(OC(C)=O)C(OC(C)=O)C1OC(C)=O (stereo not drawn) | – | > 200 | 47.9 |
